PMC4785407, “Reduction Impairs the Antibacterial Activity but Benefits the LPS Neutralization Ability of Human Enteric Defensin 5” (Scientific Reports, 2016)
Ends that are not written are not given here.

How the values were obtained:
[1] = test system: interaction between LPS and LBP (mouse LBP); assay: LPS-binding protein (LBP) block assay; type: biochemical; conditions: 200 ng/mL, positive control; mouse LBP 60 ng/mL, biotinylated LPS 50 ng/mL
Description: The effects of peptides on the interaction between LPS and low concentrations of LBP were determined as previously described. Briefly, the plates of a LBP ELISA kit (Boster EK1274) were blocked by the incubation of 1% BSA prepared in 10 mM sodium phosphate buffer (pH 7.4) at 37 °C for 1 h, which were subsequently washed with 0.1% Tween-20. Aliquots of 100 μL of mouse LBP (Sigma SRP6034, 60 ng/mL) were added and incubated at 37 °C for 1.5 h. Peptides were prepared in sterile water, with concentrations of 12.5, 25, and 50 μg/mL, respectively. Biotinylated LPS (50 ng/mL) was added in the absence or presence of peptides (pre-incubated at 37 °C for 30 min). Polymyxin B (200 ng/mL) was used as a positive control. The binding of LPS to LBP was determined using a chromogenic reaction between HRP-conjugated streptavidin (Boster BA1088) and TMB (Sigma 860336). Data were processed by subtracting the absorbance in the absence of LPS. Statistical significance was determined by the Student−Newman−Keuls multiple comparisons test.
Figure 5. The efficiencies of peptides in blocking the interaction between LPS and LBP. A LBP ELISA plate was blocked by 1% BSA and subsequently washed with 0.1% Tween-20. Aliquots of 100 μL of the mouse LBP (60 ng/mL) was added and incubated at 37°C for 1.5 h. Peptides were prepared in sterile water, with concentrations of 12.5, 25, and 50 μg/mL, respectively. Biotinylated LPS (50 ng/mL) was then added in the absence or presence of peptides (pre-incubated at 37°C for 30 min). Data were processed by subtracting the absorbance in the absence of biotinylated LPS. Statistical significance was determined by the Student−Newman−Keuls multiple comparisons test. n.s, not significant; **, p < 0.01, relative to the value of the group solely treated with LPS.

bacteria = conditions: cited from earlier work
Description: Oxidized human defensin 5 (HD5OX), a 32-residue α defensin, is stored in the secretory granules of Paneth cells in the small intestine as a propeptide (E20-R94) and is processed by anionic and/or meso isoforms of trypsin during secretion or shortly thereafter at a cleavage site between R62 and A63[6]. […] We have previously prepared bioactive HD5OX using Pichia pastoris and design ... || HD5OX is an endogenous bactericidal agent.

[2] = flexible N-terminus; cited from earlier work
Description: Changes in function follow changes in structure.

[3] = test system: LPS-binding protein (LBP); LPS-stimulated macrophages; conditions: cited from earlier work
Description: Human defensins are also noted for their immunoregulatory properties. […] Additionally, some defensins are able to suppress the pro-inflammatory effect of bacterial lipopolysaccharide (LPS). For example, H ...

## Polymyxin B [PB, reference compound]
[1]
  effect on the interaction between LPS and LBP: significantly inhibited the LPS-LBP interaction

## HBD3: human β defensin cited from the literature (GIINTLQKYYCRVRGGRCAVLSCLPKEEQIGKCSTRGRKCCRRKK; ends and bridges not checked; cysteine pairing not given here; UniProt P81534 23-67, looked up)
bacteria
  function without disulfide bonds: can function well without disulfide bonds
[2]
  conformation in SDS micelles: adopts a α-helical-containing structure

## HNP1: human neutrophil peptide cited from the literature
[3]
  interaction between LPS and low concentrations of LBP; TNF-α production: can block the interaction between LPS and low concentrations of LPS-binding protein
bacteria
  antibacterial property on loss of disulfide bonds: loss of disulfide bonds attenuates the antibacterial property

## human β defensin (HBD) 1 (DHYNCVSSGGQCLYSACPIFTKIQGTCYRGKAKCCK; ends and bridges not checked; cysteine pairing not given here; UniProt P60022 33-68, looked up) [HBD1, ubiquitously expressed peptide in human epithelia]
[3]
  interaction between LPS and low concentrations of LBP; TNF-α production: can block the interaction between LPS and low concentrations of LPS-binding protein
bacteria; disulfide reduction
  antibacterial activity upon reduction: enhanced upon reduction
